Experimental data reported in PubChem BioAssay (NCI).
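Dose response: 5 concentrations. Exposure: 48 h. Format: 96-well plates. Endpoint: linear interpolation; highest concentration if not reached. TGI is the concentration that stops growth completely.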

Tests used:
Test in all cases: NCI-60 cell line screen, 48 h
786-0 renal = test system: 786-0 renal
A498 renal = test system: A498 renal
A549 NSCLC = test system: A549 NSCLC
ACHN renal = test system: ACHN renal
BT-549 breast = test system: BT-549 breast
CAKI-1 renal = test system: CAKI-1 renal
CCRF-CEM leukemia = test system: CCRF-CEM leukemia
COLO 205 colon = test system: COLO 205 colon
DU-145 prostate = test system: DU-145 prostate
EKVX NSCLC = test system: EKVX NSCLC
HCC-2998 colon = test system: HCC-2998 colon
HCT-116 colon = test system: HCT-116 colon
HCT-15 colon = test system: HCT-15 colon
HL-60(TB) leukemia = test system: HL-60(TB) leukemia
HOP-62 NSCLC = test system: HOP-62 NSCLC
HOP-92 NSCLC = test system: HOP-92 NSCLC
HS 578T breast = test system: HS 578T breast
HT29 colon = test system: HT29 colon
IGROV1 ovarian = test system: IGROV1 ovarian
K-562 leukemia = test system: K-562 leukemia
KM12 colon = test system: KM12 colon
LOX IMVI melanoma = test system: LOX IMVI melanoma
M14 melanoma = test system: M14 melanoma
MALME-3M melanoma = test system: MALME-3M melanoma
MCF7 breast = test system: MCF7 breast
MDA-MB-435 = test system: MDA-MB-435
MDA-N = test system: MDA-N
MOLT-4 leukemia = test system: MOLT-4 leukemia
NCI-H226 lung = test system: NCI-H226 lung
NCI-H23 lung = test system: NCI-H23 lung
NCI-H460 lung = test system: NCI-H460 lung
NCI-H522 lung = test system: NCI-H522 lung
NCI/ADR-RES ovarian = test system: NCI/ADR-RES ovarian
OVCAR-3 ovarian = test system: OVCAR-3 ovarian
OVCAR-4 ovarian = test system: OVCAR-4 ovarian
OVCAR-5 ovarian = test system: OVCAR-5 ovarian
OVCAR-8 ovarian = test system: OVCAR-8 ovarian
PC-3 prostate = test system: PC-3 prostate
RPMI-8226 leukemia = test system: RPMI-8226 leukemia
RXF 393 renal = test system: RXF 393 renal
SF-268 CNS = test system: SF-268 CNS
SF-295 CNS = test system: SF-295 CNS
SF-539 CNS = test system: SF-539 CNS
SK-MEL-2 melanoma = test system: SK-MEL-2 melanoma
SK-MEL-5 melanoma = test system: SK-MEL-5 melanoma
SK-OV-3 ovarian = test system: SK-OV-3 ovarian
SN12C renal = test system: SN12C renal
SNB-19 CNS = test system: SNB-19 CNS
SR leukemia = test system: SR leukemia
SW-620 colon = test system: SW-620 colon
T-47D breast = test system: T-47D breast
TK-10 renal = test system: TK-10 renal
U251 CNS = test system: U251 CNS
UACC-257 melanoma = test system: UACC-257 melanoma
UACC-62 melanoma = test system: UACC-62 melanoma
UO-31 renal = test system: UO-31 renal
SK-MEL-28 melanoma = test system: SK-MEL-28 melanoma
SNB-75 CNS = test system: SNB-75 CNS

Structure (SMILES): CCOC(=O)CCC(C(=O)OCC)n1nc2ccc(Nc3c(C)[n+]([O-])c4ccc(Cl)cc4[n+]3[O-])cc2n1 (configuration not stated)
- TGI (786-0 renal): 33.8 µM
- TGI (A498 renal): 56.3 µM
- TGI (A549 NSCLC): 45.8 µM
- TGI (ACHN renal): 31.9 µM
- TGI (BT-549 breast): > 100 µM
- TGI (CAKI-1 renal): > 100 µM
- TGI (CCRF-CEM leukemia): > 100 µM
- TGI (COLO 205 colon): > 100 µM
- TGI (DU-145 prostate): 60.9 µM
- TGI (EKVX NSCLC): 41.1 µM
- TGI (HCC-2998 colon): 28 µM
- TGI (HCT-116 colon): 57.7 µM
- TGI (HCT-15 colon): > 100 µM
- TGI (HL-60(TB) leukemia): > 100 µM
- TGI (HOP-62 NSCLC): 40.4 µM
- TGI (HOP-92 NSCLC): 71.4 µM
- TGI (HS 578T breast): 58.3 µM
- TGI (HT29 colon): > 100 µM
- TGI (IGROV1 ovarian): > 100 µM
- TGI (K-562 leukemia): > 100 µM
- TGI (KM12 colon): > 100 µM
- TGI (LOX IMVI melanoma): 30 µM
- TGI (M14 melanoma): > 100 µM
- TGI (MALME-3M melanoma): > 100 µM
- TGI (MCF7 breast): 65.8 µM
- TGI (MDA-MB-435): > 100 µM
- TGI (MDA-N): > 100 µM
- TGI (MOLT-4 leukemia): > 100 µM
- TGI (NCI-H226 lung): 51.5 µM
- TGI (NCI-H23 lung): 53.4 µM
- TGI (NCI-H460 lung): 33.6 µM
- TGI (NCI-H522 lung): > 100 µM
- TGI (NCI/ADR-RES ovarian): 48 µM
- TGI (OVCAR-3 ovarian): > 100 µM
- TGI (OVCAR-4 ovarian): > 100 µM
- TGI (OVCAR-5 ovarian): > 100 µM
- TGI (OVCAR-8 ovarian): 65.7 µM
- TGI (PC-3 prostate): > 100 µM
- TGI (RPMI-8226 leukemia): > 100 µM
- TGI (RXF 393 renal): 27.3 µM
- TGI (SF-268 CNS): 36.3 µM
- TGI (SF-295 CNS): 39.1 µM
- TGI (SF-539 CNS): 43.9 µM
- TGI (SK-MEL-2 melanoma): 61 µM
- TGI (SK-MEL-5 melanoma): 76.2 µM
- TGI (SK-OV-3 ovarian): 46.8 µM
- TGI (SN12C renal): 48.4 µM
- TGI (SNB-19 CNS): 95.9 µM
- TGI (SR leukemia): > 100 µM
- TGI (SW-620 colon): > 100 µM
- TGI (T-47D breast): 55.2 µM
- TGI (TK-10 renal): > 100 µM
- TGI (U251 CNS): 39.1 µM
- TGI (UACC-257 melanoma): 70.8 µM
- TGI (UACC-62 melanoma): > 100 µM
- TGI (UO-31 renal): 35.6 µM

Structure (SMILES): CN(C)c1ccc(C2C(Cl)C(=O)N2NC(=O)c2c(Cl)c(Cl)c(Cl)c(Cl)c2-c2nc3ccccc3[nH]2)cc1 (configuration not stated)
- TGI (786-0 renal): 6.2 µM
- TGI (A498 renal): 40.2 µM
- TGI (A549 NSCLC): > 100 µM
- TGI (ACHN renal): 34.6 µM
- TGI (BT-549 breast): 33.2 µM
- TGI (CAKI-1 renal): 41.1 µM
- TGI (CCRF-CEM leukemia): > 100 µM
- TGI (COLO 205 colon): 66.1 µM
- TGI (DU-145 prostate): 22.5 µM
- TGI (EKVX NSCLC): 67.4 µM
- TGI (HCC-2998 colon): 30.2 µM
- TGI (HCT-116 colon): 23.9 µM
- TGI (HCT-15 colon): 32.6 µM
- TGI (HL-60(TB) leukemia): 28.8 µM
- TGI (HOP-92 NSCLC): 23.9 µM
- TGI (HS 578T breast): > 100 µM
- TGI (HT29 colon): 68.9 µM
- TGI (IGROV1 ovarian): 17.2 µM
- TGI (K-562 leukemia): > 100 µM
- TGI (KM12 colon): 48.4 µM
- TGI (LOX IMVI melanoma): 30 µM
- TGI (M14 melanoma): 51.7 µM
- TGI (MALME-3M melanoma): 36.3 µM
- TGI (MCF7 breast): 23.1 µM
- TGI (MDA-MB-435): > 100 µM
- TGI (MDA-N): 55.8 µM
- TGI (MOLT-4 leukemia): > 100 µM
- TGI (NCI-H226 lung): 69.7 µM
- TGI (NCI-H23 lung): 29.7 µM
- TGI (NCI-H522 lung): 11.9 µM
- TGI (NCI/ADR-RES ovarian): > 100 µM
- TGI (OVCAR-3 ovarian): 44.7 µM
- TGI (OVCAR-5 ovarian): > 100 µM
- TGI (PC-3 prostate): 50.9 µM
- TGI (RXF 393 renal): 8.96 µM
- TGI (SF-268 CNS): 43.5 µM
- TGI (SF-295 CNS): > 100 µM
- TGI (SF-539 CNS): 57.4 µM
- TGI (SK-MEL-2 melanoma): 86.7 µM
- TGI (SK-MEL-28 melanoma): > 100 µM
- TGI (SK-MEL-5 melanoma): 48.6 µM
- TGI (SK-OV-3 ovarian): > 100 µM
- TGI (SN12C renal): 38.4 µM
- TGI (SNB-19 CNS): 94.3 µM
- TGI (SNB-75 CNS): 44.3 µM
- TGI (SR leukemia): > 100 µM
- TGI (SW-620 colon): > 100 µM
- TGI (T-47D breast): 25.2 µM
- TGI (UACC-257 melanoma): 44.6 µM
- TGI (UACC-62 melanoma): 37.5 µM
- TGI (UO-31 renal): 78.5 µM

Structure (SMILES): O=C1c2ccc3c4ccc5c6c(ccc(c7ccc(c2c37)C(=O)N1CCN1CCCCC1)c64)C(=O)N(CCN1CCCCC1)C5=O
- TGI (786-0 renal): > 100 µM
- TGI (A498 renal): > 100 µM
- TGI (A549 NSCLC): > 100 µM
- TGI (ACHN renal): > 100 µM
- TGI (BT-549 breast): > 100 µM
- TGI (CAKI-1 renal): > 100 µM
- TGI (CCRF-CEM leukemia): > 100 µM
- TGI (COLO 205 colon): > 100 µM
- TGI (DU-145 prostate): > 100 µM
- TGI (EKVX NSCLC): > 100 µM
- TGI (HCC-2998 colon): > 100 µM
- TGI (HCT-116 colon): > 100 µM
- TGI (HCT-15 colon): > 100 µM
- TGI (HL-60(TB) leukemia): > 100 µM
- TGI (HOP-62 NSCLC): > 100 µM
- TGI (HOP-92 NSCLC): > 100 µM
- TGI (HS 578T breast): > 100 µM
- TGI (HT29 colon): > 100 µM
- TGI (IGROV1 ovarian): > 100 µM
- TGI (K-562 leukemia): > 100 µM
- TGI (KM12 colon): > 100 µM
- TGI (LOX IMVI melanoma): > 100 µM
- TGI (M14 melanoma): > 100 µM
- TGI (MCF7 breast): > 100 µM
- TGI (MDA-MB-435): > 100 µM
- TGI (MDA-N): > 100 µM
- TGI (MOLT-4 leukemia): > 100 µM
- TGI (NCI-H226 lung): > 100 µM
- TGI (NCI-H23 lung): > 100 µM
- TGI (NCI-H460 lung): > 100 µM
- TGI (NCI/ADR-RES ovarian): > 100 µM
- TGI (OVCAR-3 ovarian): > 100 µM
- TGI (OVCAR-4 ovarian): > 100 µM
- TGI (OVCAR-5 ovarian): > 100 µM
- TGI (OVCAR-8 ovarian): > 100 µM
- TGI (PC-3 prostate): > 100 µM
- TGI (RPMI-8226 leukemia): > 100 µM
- TGI (RXF 393 renal): > 100 µM
- TGI (SF-268 CNS): > 100 µM
- TGI (SF-295 CNS): > 100 µM
- TGI (SF-539 CNS): > 100 µM
- TGI (SK-MEL-2 melanoma): > 100 µM
- TGI (SK-MEL-28 melanoma): > 100 µM
- TGI (SK-MEL-5 melanoma): > 100 µM
- TGI (SK-OV-3 ovarian): > 100 µM
- TGI (SN12C renal): > 100 µM
- TGI (SNB-19 CNS): > 100 µM
- TGI (SR leukemia): > 100 µM
- TGI (SW-620 colon): > 100 µM
- TGI (T-47D breast): > 100 µM
- TGI (TK-10 renal): > 100 µM
- TGI (U251 CNS): > 100 µM
- TGI (UACC-257 melanoma): > 100 µM
- TGI (UACC-62 melanoma): > 100 µM
- TGI (UO-31 renal): > 100 µM
